Like-named read-outs stand apart in the source and are kept apart here. Where a SMILES comes first, the peptide text is derived from it. The star is where a group is joined. NHC(CH2OLauroyl)3 = CCCCCCCCCCCC(=O)OCC(COC(=O)CCCCCCCCCCC)(COC(=O)CCCCCCCCCCC)N*
What was measured:
in vitro = assay type: cell-based, Chinese Hamster; settings: hamster, cho cells
Protocol: (§1) An 18-mer 5'-fluoresceinated phosphorothioate oligonucleotide was transfected into CHO cells. A comparison was made between the ability of K3C7ATL3, K3ATL3 and no-agent, to transfect the oligonucleotide into the cells. The oligonucleotide was serially diluted from 121.2 μM nucleotide, to 60.6 and 30.3 μM nucleotide. The test lipopeptides were serially diluted from 84 μM , to 42 and 21 μM. These dilutions were combined in a 3×3 matrix resulting in concentrations half that described. That is, the top dilution of oligonucleotide became 60.6 μM nucleotide (3.37 μM 18-mer oligonucleotide) and lipopeptide 42 μM. The mix was allowed to incubate for 10 min at room temperature and then overlayed on CHO cells (seeded at 1×10^4 /well the previous day). washed free of serum with DDME, in a total volume of 100 μl. Wells receiving mix with no test agent had the three different concentrations of oligonucleotide overlayed under the same conditions.
(§2) After 3 hours of incubation under standard conditions of 37° C. and 5% CO2, the mix was removed and replaced with 50 μl of DDME. The cells were viewed live under the confocal microscope. The level of fluorescence was so high that the pinhole aperture for the LASER on the BioRad MRC 500 confocal microscope, was shut down to minimum. All images were then collected on the same settings for a quantitative comparison.

Hela cells [1] = experiment: β-gal plate transfection assay, Hela; assay type: cell-based, Human; settings: 48 hours
Protocol: (§5) Hela cells were seeded in place of Cosl or CHO cells in DME+10% FCS at a density of 2×10^4 /well and transfected with pPGKlaczNLS as described above. At 48 hours, toxicity was determined by alamar blue and the cells processed for the β-gal assay.

Cos 1 cells [2] = assay type: cell-based, African Green Monkey
In short: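 Cytotoxicity of transfection agents (lipid/DNA combinations, β-galactosidase plasmid under PGK or SV40 early promoter) assessed in parallel with transfection. Viability read with alamar blue or, in some runs, MTS OD; higher signal means greater relative viability.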

leg muscle = experiment: In vivo transfection (pGFP-N1, intramuscular); parameters: species or system hairless mouse; settings: 10 μg pGFP-N1, 24 hours
Protocol: The plasmid pGFP-N1 (Clontech) encoding the Green Fluorescent Protein, was diluted 10 μg (in 10 μl) into 20 μl 5% dextrose in water and then combined with 2.1 μl of 10 mM K3ATL3 (10% DMSO) in 27.9 μl of 5% dextrose in water. After 10 min incubation at room temperature the mixture was injected into the leg muscle of a hairless mouse. The mouse was sacrificed after 24 hours and the muscle snap frozen on dry ice. Frozen sections of the tissue were made and analysed under the confocal microscope for fluorescence.

CHO cells [3] = experiment: β-gal microtitre plate transfection assay, CHO; assay type: cell-based, Chinese Hamster; settings: Table 3, CHO
Text: For experiment "c", a plasmid pPGKlaczNLS encoding β-galactosidase under the control of the mouse PGK promoter (kind gift from G.Hannan) or pSVGAL which utilises the SV40 early promoter (Sleigh, M. J. and Lockett, T. J. (1985). EMBO J. 4:3831-3837),was transfected. This experiment and assay were modified from Feigner et al J. Biol Chem. 269(4) 2550-2561 1994. This protocol allows the simultaneous assessment of 72 different combinations and concentrations of DNA and test agent in a microtitre tray. […] Cytotoxicity was assessed using alamar blue, and a sample graph is shown for experiment a.
Each of these compounds was tested for transfection ability and cytotoxicity on standard cell lines using standard conditions as described above.
(§3) The ratio of [lipid]/[DNA] at which that maximum was achieved is shown in brackets for the two different cell types in the following order; (Cos 1) (CHO). Experiments shown were carried out in Cos 1 cells, as described above. Viability was measured with the dye alamar blue . # Denotes compounds tested in a separate experiment. * Viability in this experiment was determined with MTS. OD is a measure of relative viability of the cells exposed to the different agents, and as with alamar blue, a higher value indicates greater cell viability.

Hela cells [4] = tested on: Hela cells
Protocol: as §5

Cos 1 cells [5] = assay type: cell-based, African Green Monkey; remark: listed apart in the source
In short: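 Relative viability of Cos 1 cells exposed to lipid/DNA agents was read as MTS optical density; higher OD means greater viability. Some points came from separate experiments.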

cells [6] = experiment: β-gal plate assay of unformulated mixtures of lipopeptides; assay type: cell-based; settings: previously determined
Protocol: The optimal level of transfection achieved using the compound K3ATL3 had been previously determined as requiring ^- 5 μM K3ATL3. K3ATL3 was mixed with each of K3ATL1, K3ATL2, K3ATM3, K3ATP3 and K3ATC3 to give a total concentration of lipid of 5 μM in 100 μl at ratios of 0:5, 1:4, 2:3, 3:2, 4:1 and 5:0. K3ATM3 was similarly mixed with K3ATM1, K3ATM2 and K3ATP3. Each of the lipid mixtures was combined with a constant amount of pSVGAL DNA 0.5 μg/well and transfection allowed to proceed normally.
This was further tested by making a 4:1 molar mix of the two lipopeptides K3ATL3 and K3ATM3 and testing them in a standard plate assay which involved doubling dilutions of both the lipopeptide and DNA concentration. This was compared to expression achieved with using the pure compound K3ATL3 under the same conditions.

CHO cells [7] = assay type: cell-based, Chinese Hamster
Protocol: (LEGEND--FIGS. 7, 8 and 9; none; no agent used with plasmid DNA, rb/blank; reagent blank, number following description of compound indicates no. μl of 2 mM stock (diluted with water). 7b: 100% cell survival was taken from dishes which were "mock transfected" with no DNA or transfection agent. 0% viability was assayed in the absence of cells. Viability was assessed using the dye alamar blue.)
Relative levels of cytotoxicity caused by the different agents were compared during the experiment using the dye "Alamar Blue" (Alamar, Sacramento Calif.).
as §3

Cos 1 cells [8] = experiment: β-gal microtitre plate transfection assay, Cos 1; assay type: cell-based, African Green Monkey
In short: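 Cos 1 cells were transfected with β-galactosidase plasmids (mouse PGK or SV40 early promoter) across varied lipid/DNA ratios in microtitre format. The lipid/DNA ratio giving maximal expression was recorded. Viability was measured with alamar blue or MTS, where higher OD means greater viability.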

cells [9] = experiment: β-gal reporter transfection, "y" linker non-standard amino acids; assay type: cell-based; settings: K3 "y" TL3 compounds
Protocol: Peptide/fatty acyl conjugates were synthesized using the non-standard amino acids amino butyric (C3), amino caproic (C5) and amino caprylic (C7) acids as the linker groups, a tri-lysine nucleic acid binding domain and laurate for the three fatty acyl groups. In these new conjugates the DNA binding and tris/fatty acyl moieties were separated by an extra 3, 5 and 7 carbon bond lengths respectively when compared with the prototype molecule. These compounds were then tested in the standard manner described above to determine their relative capacity to transfect cells.
K3 "y" TL3 compounds, where y=C3, C5, C7, A, L, G were compared for transfection efficiency to each other and the commercial agent Lipofectamine using the standard β-gal reporter gene system described above.

CHO cells [10] = experiment: Oligonucleotide transfection (18-mer fluoresceinated phosphorothioate), CHO; assay type: cell-based, Chinese Hamster; settings: 3 hours
Protocol: as §1, §2
After confocal analysis, 100 μl of EMEM+10% FCS was added back to the wells and cells were incubated under standard conditions overnight. Cells were re-examined for fluorescence.

[11] = Electron microscopy of formulated and unformulated compounds; assay type: physicochemical; settings: rotary shadowed
Protocol: Solutions of formulated and unformulated compounds were analysed for potential membrane-like structure. In separate experiments the following samples were analysed:
a: Negatively stained samples of formulated compounds K3ATP2:DOPE, DOPE and the unformulated compounds K3C7ATL3 and Lipofectamine.
b: Rotary shadowed samples of K3C7ATL3 and Lipofectamine mixed with two ratios of nucleotide (plasmid).
Stock samples of liposomes at 2 mM, were diluted 1 in 10 with filtered distilled water, and mixed 1:1 with filtered negative stain (Ammonium Molybdate 2%, pH 6.5) and spread onto carbon-formvar coated copper/rhodium 200 mesh electron microscope grids, and examined in a Jeol JEM 100CX electron microscope at 60 kV at magnifications of between 33 k and 100 k.
Ratios of 0.69, and 0.25, of liposome:1 mole DNA nucleotides were diluted in water and mixed for 10 min at room temperature, spread onto carbon-formvar coated grids and rotary metal-shadowed with platinum-palladium (60:40) evaporated at an angle of 7° and examined in the electron microscope at 60 kV at magnifications between 26 k and 66 k.

PC3 = experiment: Transfection of PC3 cells; assay type: cell-based, human; settings: PC3, FIG. 22a
Text: (§4) Increasing the length of the linker portion of peptide/fatty acyl conjugates dramatically improves their transfection properties both in overall levels of reporter gene expression and also in the proportion of cells transfected. It is particularly noticable that peak levels of transfection are achieved using these reagents at a relatively low level of toxicity. […] This improved capacity of conjugates with longer linkers to promote transfection appears to be independent of cell type.

Jurkat T cell line = experiment: Transfection of Jurkat cells; assay type: cell-based, Human; settings: FIG. 22b
Text: as §4

[12] = [nucleotide] 15.15 μM, [test agent] 10.5 μM
[13] = [nucleotide] 15.15 μM, [test agent] 21 μM
[14] = [nucleotide] 15.15 μM, [test agent] 42 μM
[15] = [nucleotide] 30.3 μM, [test agent] 10.5 μM, *less strongly fluorescing for K3ATL3
[16] = [nucleotide] 30.3 μM, [test agent] 21 μM
[17] = [nucleotide] 30.3 μM, [test agent] 42 μM
[18] = [nucleotide] 60.6 μM, [test agent] 10.5 μM, *less strongly fluorescing for K3ATL3
[19] = [nucleotide] 60.6 μM, [test agent] 21 μM
[20] = [nucleotide] 60.6 μM, [test agent] 42 μM

Structure (SMILES)	cytotoxicity at 3 h, 42 µM (in vitro)	transfection efficiency compared to Lipofectamine (cells [9])	% cells fluorescing (CHO cells [10]; [12])	% cells fluorescing (CHO cells [10]; [13])	% cells fluorescing (CHO cells [10]; [14])	% cells fluorescing (CHO cells [10]; [15])	% cells fluorescing (CHO cells [10]; [16])	% cells fluorescing (CHO cells [10]; [17])	% cells fluorescing (CHO cells [10]; [18])	% cells fluorescing (CHO cells [10]; [19])	% cells fluorescing (CHO cells [10]; [20])	further results
CCCCCCCCCCCC(=O)OCC(COC(=O)CCCCCCCCCCC)(COC(=O)CCCCCCCCCCC)NC(=O)[C@H](C)NC(=O)[C@H](CCCCN)NC(=O)[C@H](CCCCN)NC(=O)[C@@H](N)CCCCN [K3ATL3] (H-KKKA-{NHC(CH2OLauroyl)3})	> 90%	more efficient at transfection than Lipofectamine	100%	100%	100%	100%	100%	100%	100%	100%	100%	transfection ability, chain length C10 to C16 (Hela cells [1]): peak transfection efficiency at C12; Viability (Cos 1) (Cos 1 cells [2]): 0.095; GFP fluorescence in motor end-plates (leg muscle): very strong fluorescence was seen in the motor end-plates; GFP fluorescence in muscle cells (leg muscle): Punctate fluorescence was observed in the cytoplasm of muscle cells; ratio [lipid]/[DNA] at which maximum was achieved (CHO cells [3]): .69; β-gal (CHO) (CHO cells [3]; highest reading of 72 conditions): 7.89 × 10^-4; cell viability (Hela cells [4]): peak level of cell viability; MTS OD490-655 (Cos 1 cells [5]): 1.363; Viability (Cos 1) (Cos 1 cells [5]): 1.36; concentration required for optimal transfection (cells [6]): ~5 µM; Viability (CHO) (CHO cells [7]): 0.027; transfection, linkers A, L and G compared (Cos 1 cells [8]; "y" linker experiment c, Cos 1, trilysine trilaurate): superior in achieving transfection; ratio [lipid]/[DNA] at which maximum was achieved (Cos 1 cells [8]; Table 2, Cos 1): 1.39; units β-gal (Cos 1 cells [8]; Table 2, Cos 1, highest reading of 72 conditions): 4.95 × 10^-4 units; β-gal (Cos 1) (Cos 1 cells [8]; Table 3, Cos 1, # tested in a separate experiment): 4.95 × 10^-4; β-gal (Cos 1) (Cos 1 cells [8]; Table 3, Cos 1, highest reading of 72 conditions): 3.02 × 10^-4
CCCCCCCCCCCC(=O)OCC(COC(=O)CCCCCCCCCCC)(COC(=O)CCCCCCCCCCC)NC(=O)CCCCCCCNC(=O)[C@H](CCCCN)NC(=O)[C@H](CCCCN)NC(=O)[C@@H](N)CCCCN [K3C7TL3]	> 90%	more efficient at transfection than Lipofectamine	100%	100%	100%	100%	100%	100%	100%	100%	100%	DNA incorporation ([11]; lipopeptide : nucleotide ratio 0.69 (optimal)): most of the DNA was incorporated into collections of liposomes; DNA free in solution ([11]; ratio 0.25:1 (suboptimal)): a large amount of DNA was free in the solution; transfection compared to lipofectamine (PC3): more effective transfection reagent than lipofectamine; transfection efficiency compared to standard single amino acid linker (cells [9]): dramatically more efficient than compounds using the standard single amino acid linker; transfection compared to lipofectamine (Jurkat T cell line): more effective transfection reagent than lipofectamine

Reference: patent US5906922A, “Delivery of nucleic acids” (Commonwealth Scientific and Industrial Research Organisation, priority 1994, dated 1999)
